Experimental data: patent US20240150387A1, “GLUCOCEREBROSIDE COMPOUND, PHARMACEUTICAL COMPOSITION THEREOF AND USE THEREOF” (DONGGUAN HEC CORDYCEPS R&D CO., LTD., priority 2021, published 2024)

Columns and labels:
[1] = tested on: spleen lymphocytes; assay: Detection of cell viability (CCK-8) of spleen lymphocytes; assay type: cell-based, mouse; details: 64, 32, 16, 8, 4, and 2 μM; 60 h incubation; compared with the control group
Description: (§1) 3.2.1 Cell acquisition: BABL/C male mice ere sacrificed after eyeball extraction and bloodletting, soaked in 75% ethanol for 10 mint, and the spleen was aseptically removed in an ultra-clean workbench, and placed in a petri dish filled with PBS. A syringe was used to absorb PBS to rinse the surface and interior of the spleen until the spleen turned white, then the spleen was gently torn up with tweezers. The spleen was gently crushed with a 5 mL syringe on the steel mesh to make a single-cell suspension, which was filtered through a 200-mesh sieve. The filtrate was centrifuged for 10 min (1000 rpm/min); after centrifugation, the supertnatant was discarded. After the cell pellet was resuspended with PBS, the mixture was centrifuged again for 10 min (1000 rpm/min), and the operation was repeated once; 2 mL of erythrocyte lysate was added to the cell pellet. After the mixture was mixed evenly and allowed to stand for 5 min, 8 mL of PBS was added to nx evenly, and then the mixture was centrifuged at 1000 rpm min for 5 min. After centrifugation, the supernatant was discarded, the cell pellet was resuspended with PBS, then the mixture was centrifuged again for 10 min (1000 rpm/min), and the operation was repeated once; after centrifugation, the supematant ias discarded, the cell pellet was suspended in 1 mL of RPMI-1640 complete medium (containing 10% fetal bovine serum and 1% double antibody). 2-3 mL medium was added to dilute. A cell counter was used for cell counting (new cell type), and complete medium was used to adjust the cell concentration to 2*10^6 cells/mL.
(§2) 3.2.2 Stunple preparation: appropriate amount of compounds 1, 2, 3, and 4 were dissolved in DMSO respectively to prepare 64 mM mother solution, and then diluted with medium to obtain solutions with a concentration of 128 μM respectively, and then gradiently diluted with medium to obtain sample dilutions with concentrations of 64 μM, 32 μM, 16 μM, 8 μM, and 4 μM, respectively.
3.2.3 Detection of cell viability: the prepared cell suspension was added to a 96-well plate. The seeding cell density was 2*10^5 cells/well, and the added cell volume was 100 μL. Compounds 1, 2, 3, and 4 were added at 100 μL/well, with 5 replicate wells for each concentration, and then incubated in a 37° C. 5% CO2 incubator for 60 h, and then incubated in a 37° C. incubator for 4-5 hours with serum-free medium and 10% CCK-8. The absorbance (A) value of each well was detected at 450 nm by a inicroplate reader. […]
3.2.5 Data processing: the proliferation rate (viability) of the sample to spleen hymphocytes was calculated according to the following formula:
Proliferation rate %=[As/Ac]×100% • As: Absorbance of sample group (spleen lymphocytes+samples to be tested+CCK-8) • Ac: Absorbance of control group (spleen lymphocytes+CCK-8)

[2] = tested on: spleen lymphocytes induced by Con A; assay: Detection of cell proliferation inhibition: Con A-induced spleen lymphocyte proliferation (CCK-8); assay type: cell-based; details: Mus musculus; for inhibition at 2 µM: concentration 2 μM; for inhibition at 2 µM / inhibition at 4 µM / inhibition at 8 µM / inhibition at 16 µM / inhibition at 32 µM / inhibition at 64 µM: read-out: Inhibitory rate (%) on the proliferation of spleen lymphocytes induced by Con A; for inhibition at 4 µM: concentration 4 μM; for inhibition at 8 µM: concentration 8 μM; for inhibition at 16 µM: concentration 16 μM; for inhibition at 32 µM: concentration 32 μM; for inhibition at 64 µM: concentration 64 μM; for IC50: linear fit of inhibition rate against log concentration, ConA final 7.5 μg/mL, 48 h
Description: as §1, §2
3.2.4 Detection of cell proliferation inhibition: the prepared cell suspension was added to the 96-well plate. The seeding cell density was 2*10^5 cells/well, and the added cell volume was 100 μL. Samples were added at 100 μL, with 5 replicate wells for each concentration, and then incubated in a 37° C., 5% CO2 incubator for 12 h. 10 μL of the supernatant were carefully suck out. 10 μL ConA with a concentration of 150 μg/mL (final concentration: 7.5 μg/mL) was added to the corresponding group, and then the mixture was incubated in a 37° C., 5% CO2 incubator for 48 h, and finally incubated in a 37° C. incubator for 4-5 hours with serum-free medium and 10% CCK-8. The absorbance (A) value of each well was detected at 450 nm by a microplate reader. A negative control group and a model control group were set up, which were cells+1640 medium, cells+ConA+1640 medium, respectively.
The proliferation inhibition rate of the sample to spleen lymphocytes was calculated according to the following formula:
Proliferation inhibition rate %=[(Am−As)/(Am−Ac)]×100% • Am: Absorbance of model control group (spleen lymphocytes+ConA+CCK-8) • As: Absorbance of sample group (spleen lymphocytes+samples to be tested+ConA+CCK-8) • Ac: Absorbance of negative control group (spleen lymphocytes+CCK-8)
The experimental results of compounds 1. 2, 3.

Q: Which results are given for `CCCCCCCCCCCCC/C=C/[C@@H](O)C(=O)N[C@@H](CO[C@@H]1O[C@H](CO)[C@@H](O)[C@H](O)[C@H]1O)[C@H](O)/C=C/CC/C=C(\C)CCCCCCCCC` [Compound 1]?
A: cytotoxic effect on spleen lymphocytes [1]: no cytotoxic effect; inhibition at 2 µM [2]: 130%; inhibition at 4 µM [2]: 136%; inhibition at 8 µM [2]: 146%; inhibition at 16 µM [2]: 150%; inhibition at 32 µM [2]: 148%; inhibition at 64 µM [2]: 152%; IC50 [2]: 4 µM

Q: How did the “cytotoxic effect on spleen lymphocytes” value [1] turn out when `CCCCCCCCCCC/C=C/[C@@H](O)C(=O)N[C@@H](CO[C@@H]1O[C@H](CO)[C@@H](O)[C@H](O)[C@H]1O)[C@H](O)/C=C/CC/C=C(\C)CCCCCCCCC` [Compound 2] was run?
A: no cytotoxic effect

Q: What about the inhibition at 2 µM [2] of the same compound?
A: 43.7%

Q: And the inhibition at 4 µM [2]?
A: 54.3%

Q: And the inhibition at 8 µM [2]?
A: 77.7%

Q: What about the inhibition at 16 µM [2] of the same compound?
A: 100%

Q: And the inhibition at 32 µM [2]?
A: 126%

Q: What about the inhibition at 64 µM [2] of the same compound?
A: 140%

Q: What about the IC50 [2] of the same compound?
A: 10.4 µM

Q: What does the source list for `CCCCCCCCCCCCCCCC(=O)N[C@@H](CO[C@@H]1O[C@H](CO)[C@@H](O)[C@H](O)[C@H]1O)[C@H](O)/C=C/CC/C=C(\C)CCCCCCCCC` [Compound 4]?
A: cytotoxic effect on spleen lymphocytes [1]: no cytotoxic effect; inhibition at 2 µM [2]: 72.2%; inhibition at 4 µM [2]: 70.7%; inhibition at 8 µM [2]: 100%; inhibition at 16 µM [2]: 102%; inhibition at 32 µM [2]: 120%; inhibition at 64 µM [2]: 120%; IC50 [2]: 1.5 µM

Q: `CCCCCCCCC/C=C/CC/C=C/[C@@H](O)[C@H](CO[C@@H]1O[C@H](CO)[C@@H](O)[C@H](O)[C@H]1O)NC(=O)[C@H](O)/C=C/CCCCCCCCCCCC` [Compound 3] was tested. Which “cytotoxic effect on spleen lymphocytes” value [1] did it give?
A: no cytotoxic effect

Q: What about the inhibition at 2 µM [2] of the same compound?
A: 4.5%

Q: And the inhibition at 4 µM [2]?
A: 30.9%

Q: And the inhibition at 8 µM [2]?
A: 37.4%

Q: And the inhibition at 16 µM [2]?
A: 52%

Q: What about the inhibition at 32 µM [2] of the same compound?
A: 84.2%

Q: What about the inhibition at 64 µM [2] of the same compound?
A: 123%

Q: What about the IC50 [2] of the same compound?
A: 19.5 µM
